US9346809B2 (LEO PHARMA A/S, priority 2009, dated 2016)

How the values were obtained:
Assay type in all cases: biochemical
[1] = target: T1, JAK1 (aa 850-1154, catalytic domain, GST-tag) (Homo sapiens, UniProt P23458); test: JAK kinase assay (HTRF, phosphorylation of TK substrate-biotin), JAK1; conditions: HTRF assay, ATP at Km (7 μM); read-out: JAK1 kinase inhibitory activity (EC50 indicator)
T1 construct: JAK1 (aa 850-1154) and TYK2 (aa 871-1187) are expressed with an N-terminally fused GST-tag; GST (N); purchased Carna Biosciences, Inc; host or cells: baculovirus expression system
T1 sequence (P23458 850-1154): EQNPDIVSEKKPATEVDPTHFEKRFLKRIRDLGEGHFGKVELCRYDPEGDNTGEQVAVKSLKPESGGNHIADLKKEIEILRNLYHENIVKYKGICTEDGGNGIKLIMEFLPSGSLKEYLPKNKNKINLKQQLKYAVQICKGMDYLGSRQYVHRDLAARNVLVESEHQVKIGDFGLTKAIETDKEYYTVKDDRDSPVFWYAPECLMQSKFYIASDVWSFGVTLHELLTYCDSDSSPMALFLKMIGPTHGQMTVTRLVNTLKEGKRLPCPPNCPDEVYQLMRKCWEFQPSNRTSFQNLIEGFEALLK
Outline: (§1)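 Compound was mixed with TK substrate-biotin (1 μM final), then kinase plus ATP at its Km was added and left 20-30 min at room temperature. Detection mix with EDTA, Streptavidin-XL665 and STK Ab Cryptate stopped the reaction; after overnight dark incubation, HTRF was read and EC50 derived.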

[2] = target: T2, TYK2 (aa 871-1187, catalytic domain, GST-tag) (Homo sapiens, UniProt P29597); test: JAK kinase assay (HTRF, phosphorylation of TK substrate-biotin), TYK2; conditions: HTRF assay, ATP at Km (13 μM); read-out: TYK2 kinase inhibitory activity (EC50 indicator)
T2 construct: JAK1 (aa 850-1154) and TYK2 (aa 871-1187) are expressed with an N-terminally fused GST-tag; GST (N); purchased Carna Biosciences, Inc; host or cells: baculovirus expression system
T2 sequence (P29597 871-1187): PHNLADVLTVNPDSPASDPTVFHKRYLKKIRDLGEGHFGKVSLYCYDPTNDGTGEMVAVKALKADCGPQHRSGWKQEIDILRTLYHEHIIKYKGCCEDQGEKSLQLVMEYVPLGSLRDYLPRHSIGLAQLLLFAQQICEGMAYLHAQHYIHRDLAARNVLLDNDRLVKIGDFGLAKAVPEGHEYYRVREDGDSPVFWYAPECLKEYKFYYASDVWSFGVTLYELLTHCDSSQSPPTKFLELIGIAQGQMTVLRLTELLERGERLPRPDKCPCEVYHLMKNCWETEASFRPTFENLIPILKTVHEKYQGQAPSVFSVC
Outline: as §1

[3] = target: T3, JAK3 (catalytic domain, His-tag) (Homo sapiens, UniProt P52333); test: JAK kinase assay (HTRF, phosphorylation of TK substrate-biotin), JAK3; conditions: HTRF assay, ATP at Km (2 μM); read-out: JAK3 kinase inhibitory activity (EC50 indicator)
T3 construct: All four purified enzymes contain only the catalytic domain; His (N); purchased Carna Biosciences, Inc; host or cells: baculovirus expression system
T3 sequence (P52333 822-1111 limits assumed): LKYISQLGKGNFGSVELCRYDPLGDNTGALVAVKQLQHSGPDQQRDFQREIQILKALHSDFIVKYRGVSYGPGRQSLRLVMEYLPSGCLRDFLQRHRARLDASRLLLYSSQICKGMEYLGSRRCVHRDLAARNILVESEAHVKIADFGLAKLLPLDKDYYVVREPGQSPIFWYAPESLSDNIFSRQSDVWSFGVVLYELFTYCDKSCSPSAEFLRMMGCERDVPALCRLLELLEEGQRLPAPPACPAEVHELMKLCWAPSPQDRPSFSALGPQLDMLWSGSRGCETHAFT
Outline: as §1

[4] = target: T4, JAK2 (catalytic domain, His-tag) (Homo sapiens, UniProt O60674); test: JAK kinase assay (HTRF, phosphorylation of TK substrate-biotin), JAK2; conditions: HTRF assay, ATP at Km (4 μM); read-out: JAK2 kinase inhibitory activity (EC50 indicator)
T4 construct: All four purified enzymes contain only the catalytic domain; His (N); purchased Carna Biosciences, Inc; host or cells: baculovirus expression system
T4 sequence (O60674 849-1124 limits assumed): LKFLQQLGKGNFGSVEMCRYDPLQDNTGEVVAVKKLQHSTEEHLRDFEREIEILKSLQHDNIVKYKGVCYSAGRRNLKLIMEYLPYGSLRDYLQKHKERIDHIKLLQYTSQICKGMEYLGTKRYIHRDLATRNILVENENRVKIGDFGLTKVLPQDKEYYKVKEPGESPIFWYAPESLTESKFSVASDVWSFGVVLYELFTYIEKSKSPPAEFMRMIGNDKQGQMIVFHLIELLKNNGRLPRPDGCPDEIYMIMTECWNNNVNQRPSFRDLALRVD
Outline: as §1

| EC50 [1] [nM] | EC50 [2] [nM] | EC50 [3] [nM] | EC50 [4] [nM] | Structure (SMILES) |
| --- | --- | --- | --- | --- |
| < 100 | 100 to 500 | < 100 | < 100 | O=C(c1cccs1)N1CCN(c2ncnc3[nH]ccc23)CC12CC2 [Example 211, [7-(7H-Pyrrolo[2,3-d]pyrimidin-4-yl)-4,7-diaza-spiro[2.5]oct-4-yl]-thiophen-2-yl-methanone] |
| 100 to 500 | > 500 | > 500 | < 100 | COc1cccc(C(=O)N2CCN(c3ncnc4[nH]ccc34)CC23CC3)c1OC [Example 212, (2,3-Dimethoxy-phenyl)-[7-(7H-pyrrolo[2,3-d]pyrimidin-4-yl)-4,7-diaza-spiro[2.5]oct-4-yl]-methanone] |
| < 100 | 100 to 500 | 100 to 500 | < 100 | COc1cc(OC)cc(C(=O)N2CCN(c3ncnc4[nH]ccc34)CC23CC3)c1 [Example 213, (3,5-Dimethoxy-phenyl)-[7-(7H-pyrrolo[2,3-d]pyrimidin-4-yl)-4,7-diaza-spiro[2.5]oct-4-yl]-methanone] |
| < 100 | 100 to 500 | < 100 | < 100 | N#Cc1ccc2[nH]c(C(=O)N3CCN(c4ncnc5[nH]ccc45)CC34CC4)cc2c1 [Example 217, 2-[7-(7H-Pyrrolo[2,3-d]pyrimidin-4-yl)-4,7-diaza-spiro[2.5]octane-4-carbonyl]-1H-indole-5-carbonitrile] |
| < 100 | 100 to 500 | 100 to 500 | < 100 | N#Cc1ccc(C(=O)N2CCN(c3ncnc4[nH]ccc34)CC23CC3)cc1F [Example 219, 2-Fluoro-4-[7-(7H-pyrrolo[2,3-d]pyrimidin-4-yl)-4,7-diaza-spiro[2.5]octane-4-carbonyl]-benzonitrile] |
| 100 to 500 | > 500 | 100 to 500 | 100 to 500 | N#CCC(=O)N1CCN(c2ccnc3[nH]ccc23)CC12CC2 [Example 220, 3-Oxo-3-[7-(1H-pyrrolo[2,3-b]pyridin-4-yl)-4,7-diaza-spiro[2.5]oct-4-yl]-propionitrile] |
| 100 to 500 | > 500 | > 500 | < 100 | O=C(c1cnccn1)N1CCN(c2ccnc3[nH]ccc23)CC12CC2 [Example 225, Pyrazin-2-yl-[7-(1H-pyrrolo[2,3-b]pyridin-4-yl)-4,7-diaza-spiro[2.5]oct-4-yl]-methanone] |
| < 100 | > 500 | > 500 | 100 to 500 | N#Cc1ccc(C(=O)N2CCN(c3ccnc4[nH]ccc34)CC23CC3)cc1 [Example 226, 4-[7-(1H-Pyrrolo[2,3-b]pyridin-4-yl)-4,7-diaza-spiro[2.5]octane-4-carbonyl]-benzonitrile] |
| 100 to 500 | > 500 | > 500 | < 100 | Cc1ccsc1C(=O)N1CCN(c2ccnc3[nH]ccc23)CC12CC2 [Example 228, (3-Methyl-thiophen-2-yl)-[7-(1H-pyrrolo[2,3-b]pyridin-4-yl)-4,7-diaza-spiro[2.5]oct-4-yl]-methanone] |

Further lines, the compound ahead of its results:

| Structure (SMILES) | EC50 [1] [nM] | EC50 [2] [nM] | EC50 [3] [nM] | EC50 [4] [nM] |
| --- | --- | --- | --- | --- |
| COc1ccc(C(=O)N2CCN(c3ncnc4[nH]ccc34)CC23CC3)s1 [Example 206, (5-Methoxy-thiophen-2-yl)-[7-(7H-pyrrolo[2,3-d]pyrimidin-4-yl)-4,7-diaza-spiro[2.5]oct-4-yl]-methanone] | < 100 | < 100 | < 100 | < 100 |
| CCCc1cc(C(=O)N2CCN(c3ncnc4[nH]ccc34)CC23CC3)cs1 [Example 207, (5-Propyl-thiophen-3-yl)-[7-(7H-pyrrolo[2,3-d]pyrimidin-4-yl)-4,7-diaza-spiro[2.5]oct-4-yl]-methanone] | < 100 | 100 to 500 | 100 to 500 | < 100 |
| Cc1sc(C(=O)N2CCN(c3ncnc4[nH]ccc34)CC23CC3)cc1Br [Example 208, (4-Bromo-5-methyl-thiophen-2-yl)-[7-(7H-pyrrolo[2,3-d]pyrimidin-4-yl)-4,7-diaza-spiro[2.5]oct-4-yl]-methanone] | < 100 | < 100 | < 100 | < 100 |
| CCc1sc(C(=O)N2CCN(c3ncnc4[nH]ccc34)CC23CC3)cc1Br [Example 209, (4-Bromo-5-ethyl-thiophen-2-yl)-[7-(7H-pyrrolo[2,3-d]pyrimidin-4-yl)-4,7-diaza-spiro[2.5]oct-4-yl]-methanone] | < 100 | < 100 | 100 to 500 | < 100 |
| CCS(=O)(=O)Nc1ccc(C(=O)N2CCN(c3ncnc4[nH]ccc34)CC23CC3)cc1 [Example 210, Ethanesulfonic acid {4-[7-(7H-pyrrolo[2,3-d]pyrimidin-4-yl)-4,7-diaza-spiro[2.5]octane-4-carbonyl]-phenyl}-amide] | < 100 | < 100 | < 100 | < 100 |
| O=C(c1csc2ccccc12)N1CCN(c2ncnc3[nH]ccc23)CC12CC2 [Example 214, Benzo[b]thiophen-3-yl-[7-(7H-pyrrolo[2,3-d]pyrimidin-4-yl)-4,7-diaza-spiro[2.5]oct-4-yl]-methanone] | < 100 | < 100 | < 100 | < 100 |
| O=C(c1ccc(-c2ccccc2)s1)N1CCN(c2ncnc3[nH]ccc23)CC12CC2 [Example 215, (5-Phenyl-thiophen-2-yl)-[7-(7H-pyrrolo[2,3-d]pyrimidin-4-yl)-4,7-diaza-spiro[2.5]oct-4-yl]-methanone] | < 100 | 100 to 500 | 100 to 500 | < 100 |
| COc1ncccc1C(=O)N1CCN(c2ncnc3[nH]ccc23)CC12CC2 [Example 216, (2-Methoxy-pyridin-3-yl)-[7-(7H-pyrrolo[2,3-d]pyrimidin-4-yl)-4,7-diaza-spiro[2.5]oct-4-yl]-methanone] | 100 to 500 | > 500 | > 500 | 100 to 500 |
| O=C(c1ccc2c(c1)CCCC2)N1CCN(c2ncnc3[nH]ccc23)CC12CC2 [Example 218, [7-(7H-Pyrrolo[2,3-d]pyrimidin-4-yl)-4,7-diaza-spiro[2.5]oct-4-yl]-(5,6,7,8-tetrahydro-naphthalen-2-yl)-methanone] | < 100 | > 500 | > 500 | < 100 |
| O=C(c1ccccc1)N1CCN(c2ccnc3[nH]ccc23)CC12CC2 [Example 221, Phenyl-[7-(1H-pyrrolo[2,3-b]pyridin-4-yl)-4,7-diaza-spiro[2.5]oct-4-yl]-methanone] | < 100 | > 500 | 100 to 500 | < 100 |
| O=C(c1ccccn1)N1CCN(c2ccnc3[nH]ccc23)CC12CC2 [Example 222, Pyridin-2-yl-[7-(1H-pyrrolo[2,3-b]pyridin-4-yl)-4,7-diaza-spiro[2.5]oct-4-yl]-methanone] | 100 to 500 | > 500 | > 500 | 100 to 500 |
| O=C(c1cccnc1)N1CCN(c2ccnc3[nH]ccc23)CC12CC2 [Example 223, Pyridin-3-yl-[7-(1H-pyrrolo[2,3-b]pyridin-4-yl)-4,7-diaza-spiro[2.5]oct-4-yl]-methanone] | 100 to 500 | > 500 | > 500 | 100 to 500 |
| O=C(c1ccncc1)N1CCN(c2ccnc3[nH]ccc23)CC12CC2 [Example 224, Pyridin-4-yl-[7-(1H-pyrrolo[2,3-b]pyridin-4-yl)-4,7-diaza-spiro[2.5]oct-4-yl]-methanone] | 100 to 500 | > 500 | > 500 | 100 to 500 |
| N#Cc1cccc(C(=O)N2CCN(c3ccnc4[nH]ccc34)CC23CC3)c1 [Example 227, 3-[7-(1H-Pyrrolo[2,3-b]pyridin-4-yl)-4,7-diaza-spiro[2.5]octane-4-carbonyl]-benzonitrile] | < 100 | > 500 | 100 to 500 | < 100 |
| O=C(c1cccc(OC(F)(F)F)c1)N1CCN(c2ccnc3[nH]ccc23)CC12CC2 [Example 229, [7-(1H-Pyrrolo[2,3-b]pyridin-4-yl)-4,7-diaza-spiro[2.5]oct-4-yl]-(3-trifluoromethoxy-phenyl)-methanone] | 100 to 500 | > 500 | > 500 | 100 to 500 |
| N#CCc1ccc(C(=O)N2CCN(c3ccnc4[nH]ccc34)CC23CC3)cc1 [Example 230, {4-[7-(1H-Pyrrolo[2,3-b]pyridin-4-yl)-4,7-diaza-spiro[2.5]octane-4-carbonyl]-phenyl}-acetonitrile] | 100 to 500 | > 500 | 100 to 500 | < 100 |
